From patent US6040149A, “Assay for identifying agents which act on the ceramide-activated protein kinase, kinase suppressor of ras, and methods of using said agents” (priority 1997, dated 2000)
Like-named read-outs stand apart in the source and are kept apart here.

Legend:
KSR [1] = target: T1, KSR (Mus musculus, UniProt Q61097); test: KSR autophosphorylation in vitro; type: biochemical, mouse (KSR immunoprecipitated from COS-7 cells); design: Raf-1 peptides as substrate
T1 sequence (Q61097 1-873): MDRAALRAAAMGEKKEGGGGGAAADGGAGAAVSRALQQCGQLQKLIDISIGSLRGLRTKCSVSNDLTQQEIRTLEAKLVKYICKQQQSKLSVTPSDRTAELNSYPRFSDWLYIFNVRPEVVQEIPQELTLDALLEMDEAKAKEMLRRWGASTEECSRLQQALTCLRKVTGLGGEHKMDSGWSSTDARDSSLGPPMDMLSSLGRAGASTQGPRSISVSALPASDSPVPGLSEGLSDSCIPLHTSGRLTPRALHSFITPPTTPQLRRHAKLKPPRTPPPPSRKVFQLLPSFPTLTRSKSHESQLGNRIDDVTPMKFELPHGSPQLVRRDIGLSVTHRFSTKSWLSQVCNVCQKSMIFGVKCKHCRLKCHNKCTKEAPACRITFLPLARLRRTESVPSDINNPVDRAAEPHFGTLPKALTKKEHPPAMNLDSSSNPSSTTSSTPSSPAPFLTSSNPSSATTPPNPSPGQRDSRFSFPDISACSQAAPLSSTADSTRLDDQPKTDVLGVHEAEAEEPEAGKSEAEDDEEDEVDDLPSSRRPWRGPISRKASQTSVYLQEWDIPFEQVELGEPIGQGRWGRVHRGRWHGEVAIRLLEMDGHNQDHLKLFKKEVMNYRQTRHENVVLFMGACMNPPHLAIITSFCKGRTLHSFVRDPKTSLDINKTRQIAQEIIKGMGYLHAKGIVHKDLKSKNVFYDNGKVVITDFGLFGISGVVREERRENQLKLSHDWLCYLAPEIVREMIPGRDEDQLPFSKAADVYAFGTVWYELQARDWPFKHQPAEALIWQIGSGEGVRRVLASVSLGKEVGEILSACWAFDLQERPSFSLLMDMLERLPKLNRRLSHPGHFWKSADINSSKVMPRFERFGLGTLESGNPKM
Method: Phosphorylated KSR was resolved and detected as in FIG. 2A.
KSR was immunoprecipitated as above from 0.8 mg NP-40 lysate protein with 40 μl agarose-conjugated anti-Flag antibody at 4° C. for 4 hrs or overnight. […] The reaction was stopped by addition of Laemmli sample buffer. Samples were resolved by 7.5% sodium dodecyl sulfate-polyacrylamide gel electrophoresis (SDS-PAGE) and autoradiographed.

Raf-1 = test: Kinase activity of immunoprecipitated Raf-1 toward MEK1 after HL-60 cell stimulation; type: cell-based, human (HL-60 cells)
Method: Recovery of MEK1 was monitored by western blot (Bottom Panel). Identical results were obtained with cells stimulated for 5 min with TNF.
Recovery of MEK1 was monitored by western blot (Bottom Panel).
These studies indicate that Raf-1 is a component of the sphingomyelin pathway mediating TNF action.
MEK1 autophosphorylation was for 45 min. An autoradiogram of MEK1 phosphorylation (top panel) and recovery of MEK1 protein by western blot (bottom panel) are shown. For western blot, proteins separated by SDS-PAGE were electrotransferred to an Immobilon PVDF membrane at 12 volts overnight at 4° C. Membranes were then blocked with 2% BSA in TBS [20 mM Tris, pH 7.6, 137 mM NaCl] for 1 hr and washed with TBST (TBS containing 0.2% Tween-20).

[2] = system: ceramide-activated protein kinase; test: EGFR peptide phosphorylation in a cell-free system (HL-60 nuclei-free supernate); type: biochemical, human (HL-60 cells); details: GTP and GTP-γ-S 0.25 to 200 μM; sphingomyelinase 1×10^-3 U ml^-1, 5 minutes; phospholipases 40- to 400-fold higher
Method: Effect of TNF-α on ceramide-activated protein kinase activity. HL-60 cells were incubated in serum-free medium and homogenized (as in FIG. 9). […] ATP (750 μM, 4000 dpm pmol^-1), and 75 μl of reaction buffer. […] Phosphorylated peptide was first run on a C18 Sep-Pak cartridge, then resolved by C18 reverse-phase HPLC (Waters, Milford, Mass.), with a linear gradient of acetonitrile. The peptide eluted at 30% acetonitrile, as determined by monitoring Cerenkov radiation in 1-ml fractions. Background activity was subtracted from each point. (A) Kinetics of TNF-α (30 nM)-stimulated EGFR peptide phosphorylation. Values (mean) represent data from four experiments. (B) Concentration dependence of EGFR peptide phosphorylation at 5 minutes of stimulation with TNF-α (0.01 to 30 nM). Values (mean) represent data derived from duplicate points in two experiments. The SEM of the values in (A) was 18% and the mean range of values in (B) was 3%.
Effect of phospholipases on ceramide-activated protein kinase activity. Nuclei-free supernates, prepared as in FIG. 9, were first incubated with TNF-α (3 nM) or added directly to reaction mixtures that contained various phospholipases; sphingomyelinase (SMase) (1×10^-3 U ml^-1, S. aureus), phospholipase A2 (PlA2) (3.8×10^-2 and 3.8×10^-1 U ml^-1, Vipera ruselli), phospholipase C (PLC) (3.8×10^-2 U ml^-1, Bacillus cereus) and phospholipase D (PLD) (3.8×10^-2 U ml^-1, Streptomyces chromocuscus). Peptide phosphorylation was measured as in FIG. 10. Control value represents peptide phosphorylation in the absence of phospholipases or TNF-α. Values (mean±SEM) represent data derived from duplicate samples in three experiments. *P<0.001 compared to control.
The effect of TNF-α on ceramide-activated protein kinase activity was assessed. […] For studies assessing the effect of TNFα in broken cell preparations, nuclei-free supernates were incubated under conditions sufficient for stimulation of neutral sphingomyelinase in a reaction mixture that also contained EGFR peptide and γ-^32 P-labeled ATP. Phosphorylated peptide was resolved by high-performance liquid chromatograph (HPLC) and quantified by Cerenkov counting. Kinase activity was calculated from the specific activity of [γ-^32 P] ATP and incorporation of ^32 P into EGFR peptide. Background activity was subtracted from each point. […] TNF-α stimulation of kinase activity was evident by 1 minute and demonstrable for at least 10 minutes. If the initial incubation with TNF-α at 4° C. was omitted and TNF was added directly to the reaction mixture at 22° C., the reaction was delayed. […] TNF-α enhanced kinase activity in a concentration-dependent manner at 5 minutes (FIG. 10B). […] This is similar to the ED50 of 200 pM for stimulation of ceramide-activated protein kinase by TNF-α in intact cells. TNF-α enhanced kinase activity in a total of 20 separate studies.
Control activity reflects several TNF-α-independent protein kinases that are known to phosphorylate EGFR peptide on Thr^669.

[3] = system: ceramide-activated protein kinase; details: generation of other lipid second messengers, refs [111, 112]; cited from earlier work
KSR [4] = target: T1, KSR; test: KSR activity toward Raf-1 peptides in vitro; type: biochemical, mouse (KSR immunoprecipitated from COS-7 cells); design: Raf-1 peptides as substrate; details: 30 nM
Method: The wild type peptide contains eight potential phosphorylation sites (shown in bold). Substitution of alanines and glycines for serines and threonines generated one peptide (TTLP-peptide) containing only two potential phosphorylation sites (Thr^268,269) and another peptide (AALP-peptide) with no potential phosphorylation sites.
FIG. 28A--Flag-tagged KSR was immunoprecipitated from 0.2 mg COS-7 lysate, and assayed with TTLP- or AALP-peptides in the presence of 30 nM ceramide (Avanti) or diluent (DMSO). Background counts per minute (cpm) derived from samples incubated with the AALP-peptide which contains no phosphorylation sites were subtracted from all points. Background cpm always represented less than 25% of the untreated total.
FIG. 28B--Flag-tagged KSR immunoprecipitated from 0.2 mg COS-7 lysate was assayed with TTLP- or AALP-peptides in the presence of ceramide or diluent for 45 min as described in FIG. 7A.
FIG. 28C--Flag-tagged KSR was immunoprecipitated from 0.15 mg COS-7 lysate and assayed with TTLP- or AALP-peptides for 20 min in the presence of 30 nM of the indicated lipid second messengers as described in FIG. 28A (AA: arachidonic acid; LPA: lyso phosphatidic acid; PMA: phorbol 12-myristate 13-acetate; DAG: 1,2-diacylglycerol).
KSR-bound beads were incubated with reaction buffer B plus 10 mM MnCl2, 5 μM ATP and [γ-^32 P]ATP at 22° C. for the period of time indicated in the presence of 0.3 mM synthetic Raf-peptide or substrate peptides specific for other Ser/Thr protein kinases. […] (SEQ ID NO.3). Substitution of glycines and alanines for serines and threonines generated one peptide (termed TTLP-peptide) containing only two potential phosphorylation sites at Thr^268,269 (in bold), […] (SEQ ID NO. 24), and another peptide (termed AALP-peptide; SEQ ID No.6) with no potential phosphorylation sites, […] (SEQ ID No.25). The amino acid sequences of substrate peptides specific for other protein kinases (Joseph et al., 1993) are: […] (SEQ ID NO.26) (PKA); […] (SEQ ID NO.27) (S6 kinase); […] (SEQ ID NO.28)(CK II); […] (SEQ ID NO.29) (CaM kinase II); and […] (SEQ ID NO.30) (PKC). […] Substrate peptides for PKA and PKC were from Sigma (St. Louis, Mo.). The reaction was stopped by addition of a stop solution containing 0.5 M ATP in 90% formic acid. The beads were removed by centrifugation at 5000×g for 2 min and the supernatant was loaded on P81 Whatman filter paper. The filter was air dried and washed in 4 mM Na2 H2 P2 O7, 1 mM acetic acid for one hour. The filter was baked at 90° C. for 10 min and quantified by Cerenkov counting using a Beckman LS 5000TD scintillation counter. In some experiments, samples were separated by C18 reverse-phase chromatography on HPLC (Mathias et al., 1991) to verify the results of the filter assay. Virtually identical results were obtained with both methods.

Compound: phosphatidylserine
- effect on activation of KSR (KSR [1]): no effect

Compound: insulin: insulin
- increase of Raf-1 activity (Raf-1; insulin 100 nM): 4 fold

Compound: Nc1nc2c(ncn2[C@@H]2O[C@H](COP(=O)(O)OP(=O)(O)OP(O)(O)=S)[C@@H](O)[C@H]2O)c(=O)[nH]1 [GTP-γ-S, guanosine-5'-O-(3-thiotriphosphate)]
- effect on kinase activity [2]: did not affect kinase activity

Compound: CCCCC/C=C\C/C=C\C/C=C\C/C=C\CCCC(=O)O [arachidonic acid]
- effect on kinase activity [3]: failed to enhance kinase activity
- effect on activation of KSR (KSR [1]): no effect
- effect on activation of KSR towards Raf-peptide (KSR [4]): no effect

Compound: Granulocyte-macrophage colony stimulating factor: induces monocytic differentiation of HL-60 cells
- increase of Raf-1 activity (Raf-1; GM-CSF 500 pM): 2.5 fold

Compound: Nc1nc2c(ncn2[C@@H]2O[C@H](COP(=O)(O)OP(=O)(O)OP(=O)(O)O)[C@@H](O)[C@H]2O)c(=O)[nH]1 [GTP, Guanosine triphosphate]
- effect on kinase activity [2]: did not affect kinase activity

Compound: phosphatidylcholine
- effect on activation of KSR (KSR [1]): no effect

Compound: lyso-phosphatidic acid
- effect on activation of KSR (KSR [1]): no effect
- effect on activation of KSR towards Raf-peptide (KSR [4]): no effect

Compound: phosphatidic acid
- effect on kinase activity [3]: failed to enhance kinase activity

Compound: 1,2-diacylglycerol
- effect on kinase activity [3]: failed to enhance kinase activity
- effect on activation of KSR (KSR [1]): no effect
- effect on activation of KSR towards Raf-peptide (KSR [4]): no effect

Compound: PDGF
- increase of Raf-1 activation (Raf-1; PDGF 5 nM, after TPA induction of PDGF receptors): 4 fold
